What is called pEC50 is −log10 of the EC50, conventionally taken in molar units. A lower pEC50 goes with a high EC50.

Experimental findings from US20240270762A1, “PENICILLIN-BINDING PROTEIN INHIBITORS” (priority 2021, published 2024) are described below.

Test [1] addresses T1, PBP3 from Escherichia coli (K-12) (Escherichia coli, UniProt P0AD68).
T1 construct: made in house
The test can be described thus: Bocillin-FL fluorescence polarization competition binding, E. coli PBP3. Put shortly:
(§1)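 Purified PBPs pre-incubated with inhibitor (E. coli PBP3 1.5 μM, 30 min; P. aeruginosa PBP3 0.75 μM, A. baumannii PBP1a 1 μM and PBP3 0.2 μM, 15 min), then Bocillin-FL 0.1 μM (0.05 μM for PBP1a) added; FP read up to 60 min. EC50 = concentration halving bound Bocillin-FL.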
In general terms: Polarisation of emitted light reports the rotation of a fluorescent probe.

In test [2] the target is T2, PBP3 from Pseudomonas aeruginosa (PAO1) (Pseudomonas aeruginosa, UniProt G3XD46).
T2 construct: made in house
The test can be described thus: Bocillin-FL fluorescence polarization competition binding, P. aeruginosa PBP3. As to conditions: Binding affinity to P. aeruginosa PBP3; fluorescence polarization competition binding assay using Bocillin-FL; read-out: P. aeruginosa PBP3 Potency. In short, it runs like this:
as §1

The next test has as its system P. aeruginosa ATCC 27853. The test can be described thus: microbe, parasite or virus in culture. The test is classed as cell-based. As to conditions: Pseudomonas aeruginosa, ATCC27853, read-out: Minimum inhibitory concentration, P. aeruginosa ATCC 27853.
Another test has as its system A. baumannii ATCC 19606. The test can be described thus: microbe, parasite or virus in culture. The format is cell-based. As to conditions: Acinetobacter baumannii, ATCC19606, read-out: MIC, A. baumannii ATCC 19606.
Test [3] deals with P. aeruginosa (ΔmexAB-oprM). Nature of the test: Broth microdilution MIC in iron-depleted CAMHB (IDM). As to conditions: Pseudomonas aeruginosa; iron-depleted CAMHB (IDM); […]; read-out: Minimum inhibitory concentration, P. aeruginosa ΔmexAB-oprM. The format is cell-based. In general terms: Broth dilution looks for growth in wells or tubes with falling amounts of substance.
A further test deals with A. baumannii CDC-0045. Nature of the test: microbe, parasite or virus in culture. The format is cell-based. The note with it: Acinetobacter baumannii, CDC0045, read-out: MIC, A. baumannii CDC-0045.
Test [4] relates to B. thailandensis ATCC 700388. Nature of the test: microbe, parasite or virus in culture. The test is classed as cell-based. As to conditions: Burkholderia thailandensis, ATCC700388, read-out: Minimum inhibitory concentration (MIC), B. thailandensis ATCC 700388.
For test [5], the system named is B. humptydooensis ATCC BAA-2767. Nature of the test: microbe, parasite or virus in culture. As to conditions: Burkholderia humptydooensis, ATCCBAA2767, read-out: Minimum inhibitory concentration (MIC), B. humptydooensis ATCC BAA-2767. The format is cell-based.
The test system of test [6] is N. gonorrhoeae ATCC 49226. Nature of the test: Liquid broth MIC in Fastidious broth. As to conditions: Neisseria gonorrhoeae, ATCC49226, read-out: Minimum Inhibitory Concentration, ATCC 49226.
In a further test the test system is N. gonorrhoeae FA1090. The test can be described thus: Liquid broth MIC in Fastidious broth. As to conditions: Neisseria gonorrhoeae, FA1090, read-out: Minimum Inhibitory Concentration, FA 1090.
In another test the test system is N. gonorrhoeae MS11. The test can be described thus: Liquid broth MIC in Fastidious broth. The note with it: Neisseria gonorrhoeae, MS11, read-out: Minimum Inhibitory Concentration, MS11.
In another test the test system is N. gonorrhoeae WHO G. The test can be described thus: Liquid broth MIC in Fastidious broth. The note with it: Neisseria gonorrhoeae, read-out: Minimum Inhibitory Concentration, WHO G.
For another test, the system named is N. gonorrhoeae WHO L. Nature of the test: Liquid broth MIC in Fastidious broth. As to conditions: Neisseria gonorrhoeae, read-out: Minimum Inhibitory Concentration, WHO L.
The test system of a further test is N. gonorrhoeae WHO Z. Nature of the test: Liquid broth MIC in Fastidious broth. As to conditions: Neisseria gonorrhoeae, read-out: Minimum Inhibitory Concentration, WHO Z.
The subject of another test is N. gonorrhoeae CDC-0197. Nature of the test: Liquid broth MIC in Fastidious broth. As to conditions: Neisseria gonorrhoeae, CDC0197, read-out: Minimum Inhibitory Concentration, CDC-0197.

pEC50, pIC50: −log10 of the molar value. Values after ≈ are worked out from the molar mass of the structure shown.

T1 sequence (P0AD68 1-577): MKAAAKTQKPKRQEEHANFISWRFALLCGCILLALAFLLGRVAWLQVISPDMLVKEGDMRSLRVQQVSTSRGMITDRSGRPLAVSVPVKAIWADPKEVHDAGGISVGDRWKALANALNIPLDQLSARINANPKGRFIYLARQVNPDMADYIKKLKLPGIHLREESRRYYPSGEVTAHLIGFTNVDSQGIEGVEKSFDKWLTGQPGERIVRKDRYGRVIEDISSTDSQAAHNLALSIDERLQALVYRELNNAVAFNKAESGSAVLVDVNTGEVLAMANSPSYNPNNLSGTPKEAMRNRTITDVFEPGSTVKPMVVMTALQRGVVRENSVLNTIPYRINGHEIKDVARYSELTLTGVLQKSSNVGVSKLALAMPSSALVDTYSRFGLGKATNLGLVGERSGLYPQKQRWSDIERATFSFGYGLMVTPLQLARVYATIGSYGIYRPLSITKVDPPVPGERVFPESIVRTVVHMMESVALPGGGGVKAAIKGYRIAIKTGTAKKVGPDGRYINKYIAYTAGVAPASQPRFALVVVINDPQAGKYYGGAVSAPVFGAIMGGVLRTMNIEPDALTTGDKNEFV
T2 sequence (G3XD46 whole entry): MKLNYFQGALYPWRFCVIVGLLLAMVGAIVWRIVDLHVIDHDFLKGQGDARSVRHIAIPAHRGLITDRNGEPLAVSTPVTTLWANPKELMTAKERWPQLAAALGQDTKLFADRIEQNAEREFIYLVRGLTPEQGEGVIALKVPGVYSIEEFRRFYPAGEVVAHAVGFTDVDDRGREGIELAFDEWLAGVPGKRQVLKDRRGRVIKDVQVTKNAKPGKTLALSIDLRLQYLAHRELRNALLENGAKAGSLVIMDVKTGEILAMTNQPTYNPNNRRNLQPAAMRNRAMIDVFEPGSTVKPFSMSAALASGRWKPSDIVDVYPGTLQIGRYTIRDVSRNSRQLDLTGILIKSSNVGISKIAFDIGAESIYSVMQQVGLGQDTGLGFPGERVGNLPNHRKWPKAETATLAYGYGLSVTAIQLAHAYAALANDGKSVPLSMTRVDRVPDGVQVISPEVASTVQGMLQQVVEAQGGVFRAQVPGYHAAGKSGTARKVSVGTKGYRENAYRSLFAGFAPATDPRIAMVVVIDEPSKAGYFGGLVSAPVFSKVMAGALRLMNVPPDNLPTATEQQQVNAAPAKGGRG
Experimental for N. gonorrhoeae WHO Z: Additional antibacterial testing of the series was performed in 8 reference strains of N. gonorrhoeae (ATCC 49226, FA1090, MS 11, WHO G, WHO L, WHO M, WHO K, WHO X, WHO Z, WHO Q, CDC-0197). ATCC 49226, FA1090, MS11, WHO G, WHO L, and WHO M produce wild type or wild-type like PBP2. WHO K, WHO X, WHO Z, WHO Q, and CDC-0197 produce mosaic PBP2. Liquid broth-based assays were used for antibacterial testing of PBP inhibitors in Neisseria gonorrhoeae. Briefly, cryo-preserved bacterial cultures of clinical strains were streaked for isolation on Chocolate Agar (72 g/L (2×) GC Agar Base (BD #228950) and 2% (2×) Hemoglobin was autoclaved at 121° C. for 20 minutes to sterilize. Once cooled to ˜50° C. the 2×GC Agar Base and 2× Hemoglobin solutions are combined and 1% IsoVitaleX Enrichment (BD #211876) was added to the solution). Strains were incubated at 36° C. and 5% CO2 to allow growth of colonies, 24 hours before inoculum preparation. 2-fold serial dilutions of test compounds were conducted in a 96 well plate with a final volume of 75 μL per well at 2-fold the final desired concentration in Fastidious broth (Remel #R07664). For preparation of assay inoculum, a direct suspension was prepared by aseptically swabbing 10-15 colonies from agar plates into culture tubes containing 2 mL of fresh sterile saline. After the dilution plates were set up, direct suspensions were then diluted in a cuvette containing sterile saline and the optical density was measured at 600 nm. Inocula were diluted such that 75 μL of this culture in Fastidious broth results in a starting bacterial concentration of 5×10^5 CFU/mL when added to the dilution plates. The plates were incubated for ˜24 hours at 36° C. and 5% CO2.

In the case of `O=C(NCCS(=O)(=O)N1CCN(C(=O)N[C@@H](C(=O)N[C@H]2Cc3ccc(F)c(C(=O)O)c3OB2O)c2cc(F)c(O)c(O)c2Cl)C1=O)Nc1cccnc1` [Example 267, (R)-3-((R)-2-(2-chloro-5-fluoro-3,4-dihydroxyphenyl)-2-(2-oxo-3-((2-(3-(pyridin-3-yl)ureido)ethyl)sulfonyl)imidazolidine-1-carboxamido)acetamido)-7-fluoro-2-hydroxy-3,4-dihydro-2H-benzo[e][1,2]oxaborinine-8-carboxylic acid], in test [1], the negative-log EC50 (pEC50) is > 5.00. For the same molecule, in [2], the pIC50 is > 5.00. In addition, the MIC is 2 to 4 µg/mL (≈ 2.56 to 5.12 µM) with P. aeruginosa ATCC 27853; < 1 µg/mL with A. baumannii ATCC 19606; < 1 µg/mL in test [3]; < 1 µg/mL with A. baumannii CDC-0045; 2 to 4 µg/mL (≈ 2.56 to 5.12 µM) in [4]; 2 to 4 µg/mL (≈ 2.56 to 5.12 µM) in test [5]. Further, the MIC in test [6] is 16 to 32 µg/mL (≈ 20.5 to 40.9 µM); in the test on N. gonorrhoeae FA1090, 1 to 2 µg/mL (≈ 1.28 to 2.56 µM); with N. gonorrhoeae MS11, 16 to 32 µg/mL (≈ 20.5 to 40.9 µM); in the test on N. gonorrhoeae WHO G, 16 to 32 µg/mL (≈ 20.5 to 40.9 µM); in the test on N. gonorrhoeae WHO L, > 64 µg/mL; in the test with N. gonorrhoeae WHO Z it was 4 to 8 µg/mL (≈ 5.12 to 10.2 µM). For the same molecule, the MIC in the test on N. gonorrhoeae CDC-0197 is 16 to 32 µg/mL (≈ 20.5 to 40.9 µM).

For the molecule `O=C(NCCCS(=O)(=O)N1CCN(C(=O)NC(C(=O)N[C@H]2Cc3ccc(F)c(C(=O)O)c3OB2O)c2cc(F)c(O)c(O)c2Cl)C1=O)c1ccccc1` (stereo partly drawn) [Example 268, (3R)-3-(2-(3-((3-benzamidopropyl)sulfonyl)-2-oxoimidazolidine-1-carboxamido)-2-(2-chloro-5-fluoro-3,4-dihydroxyphenyl)acetamido)-7-fluoro-2-hydroxy-3,4-dihydro-2H-benzo[e][1,2]oxaborinine-8-carboxylic acid], the pEC50 in [1] was > 5.00. The pIC50 in [2] is > 5.00. Further, the MIC in the test with P. aeruginosa ATCC 27853 is 8 to 16 µg/mL (≈ 10.3 to 20.5 µM); with A. baumannii ATCC 19606 it was < 1 µg/mL; in test [3] it was < 1 µg/mL; in the test with A. baumannii CDC-0045, 2 to 4 µg/mL (≈ 2.56 to 5.13 µM); in test [4], > 128 µg/mL; in [5], > 128 µg/mL. Also, the MIC is 16 to 32 µg/mL (≈ 20.5 to 41 µM) in test [6]; 4 to 8 µg/mL (≈ 5.13 to 10.3 µM) with N. gonorrhoeae FA1090; 16 to 32 µg/mL (≈ 20.5 to 41 µM) in the test with N. gonorrhoeae MS11; 16 to 32 µg/mL (≈ 20.5 to 41 µM) in the test on N. gonorrhoeae WHO G; > 64 µg/mL in the test with N. gonorrhoeae WHO L; 16 to 32 µg/mL (≈ 20.5 to 41 µM) in the test with N. gonorrhoeae WHO Z. In addition, the MIC in the test on N. gonorrhoeae CDC-0197 lay in the range of 16 to 32 µg/mL (≈ 20.5 to 41 µM).

For `O=C(NCCCS(=O)(=O)N1CCN(C(=O)NC(C(=O)N[C@H]2Cc3ccc(F)c(C(=O)O)c3OB2O)c2cc(F)c(O)c(O)c2Cl)C1=O)c1ccc(O)cc1` (stereo partly drawn) [Example 269, (3R)-3-(2-(2-chloro-5-fluoro-3,4-dihydroxyphenyl)-2-(3-((3-(4-hydroxybenzamido)propyl)sulfonyl)-2-oxoimidazolidine-1-carboxamido)acetamido)-7-fluoro-2-hydroxy-3,4-dihydro-2H-benzo[e][1,2]oxaborinine-8-carboxylic acid], in test [1], the pEC50 was > 5.00. Further, the pIC50 in test [2] was > 5.00. In addition, the MIC in the test with P. aeruginosa ATCC 27853 was 2 to 4 µg/mL (≈ 2.51 to 5.03 µM); in the test on A. baumannii ATCC 19606, < 1 µg/mL; in [3], < 1 µg/mL; in the test on A. baumannii CDC-0045 it was < 1 µg/mL; in test [4] it was > 128 µg/mL; in test [5], > 128 µg/mL. The MIC is 16 to 32 µg/mL (≈ 20.1 to 40.2 µM) in test [6]; 4 to 8 µg/mL (≈ 5.03 to 10.1 µM) in the test on N. gonorrhoeae FA1090; 16 to 32 µg/mL (≈ 20.1 to 40.2 µM) with N. gonorrhoeae MS11; 16 to 32 µg/mL (≈ 20.1 to 40.2 µM) in the test with N. gonorrhoeae WHO G; > 64 µg/mL in the test with N. gonorrhoeae WHO L; 16 to 32 µg/mL (≈ 20.1 to 40.2 µM) with N. gonorrhoeae WHO Z. In the test on N. gonorrhoeae CDC-0197, the MIC lay within 16 to 32 µg/mL (≈ 20.1 to 40.2 µM).
